Results as given in patent publication US20220340983A1, “SYSTEMS AND ASSAYS FOR IDENTIFYING PU.1 INHIBITORS” (Massachustts Institute of Technology, priority 2019, published 2022).
pIC50: −log10 of the molar value.

System: PU.1 dependent gene expression
Test: RT-qPCR of mRNA levels in BV2 PU.1-Luciferase cells (validation round 3)
Format: cell-based, mouse
Details: 2-day treatment
Description: The Asinex1 and ChemDiv6 libraries contain molecules with unknown biological properties, but with low toxicity, high stability, and a broad structural diversity used to generate structure-activity-relationships (SAR) of the PU.1 inhibitors. […] In order to obtain the SAR, three rounds of validation were performed. In round 1, false-positive, non-specific luciferase quencher molecules were excluded using the commercially available HEK293 CMV-Luciferase line that constitutively expresses luciferase under the CMV promoter. In round 2, weak (non-significant) hits were eliminated according to degree of PU.1 inhibition in the absence of cell death. In round 3, drugs were selected that reduce PU.1-dependent gene expression with RT-qPCR.

| SMILES | mRNA levels Apoe | mRNA levels IL1β | mRNA levels Lucif. | mRNA levels Spi1 | mRNA levels Trem2 | mRNA levels Tyrobp |
| --- | --- | --- | --- | --- | --- | --- |
| CCCC(=O)Nc1nnc(SCc2cc(=O)c3ccc(C)cc3[nH]2)s1 [Compound 2E6] | 1.170 multiples of 1× | 0.810 multiples of 1× | 0.379 multiples of 1× | 1.046 multiples of 1× | 1.262 multiples of 1× | 1.347 multiples of 1× |
| Cc1ccc(C(=O)Nc2nnc(SCc3cc(=O)c4c(C)ccc(C)c4[nH]3)s2)cc1 [Compound 2E7] | 1.076 multiples of 1× | 0.887 multiples of 1× | 0.623 multiples of 1× | 0.926 multiples of 1× | 0.854 multiples of 1× | 0.927 multiples of 1× |
| Cc1ccc(C)c(N2CCN(C(=O)C3CCN(c4nc(-c5ccc(C(C)C)cc5)no4)CC3)CC2)c1 [Compound 2E10] | 1.244 multiples of 1× | 1.082 multiples of 1× | 0.611 multiples of 1× | 1.133 multiples of 1× | 1.253 multiples of 1× | 1.158 multiples of 1× |
| Cc1nc(-c2ccc(S(=O)(=O)Nc3ccc(C)c(N(C)C)c3)cc2)co1 [Compound 2F3] | 1.011 multiples of 1× | 0.386 multiples of 1× | 0.496 multiples of 1× | 0.733 multiples of 1× | 0.790 multiples of 1× | 0.854 multiples of 1× |
| COc1cc(NS(=O)(=O)c2ccc3c(c2)CCN3S(C)(=O)=O)cc(OC)c1 [Compound 2F5] | 0.790 multiples of 1× | 0.767 multiples of 1× | 0.590 multiples of 1× | 0.783 multiples of 1× | 0.901 multiples of 1× | 0.985 multiples of 1× |
| COc1ccc(NS(=O)(=O)c2ccc3c(c2)CCCN3C(=O)C2CCC2)cc1OC [Compound 2F7] | 1.146 multiples of 1× | 0.460 multiples of 1× | 0.216 multiples of 1× | 0.936 multiples of 1× | 1.442 multiples of 1× | 1.498 multiples of 1× |
| Cc1c(Cl)ccc2sc(N3CCN(C(=O)CCS(=O)(=O)c4ccc(F)cc4)CC3)nc12 [Compound 2F9] | 0.928 multiples of 1× | 0.821 multiples of 1× | 0.655 multiples of 1× | 1.020 multiples of 1× | 0.890 multiples of 1× | 0.904 multiples of 1× |
| Cc1cccc(Cn2cccc(C(=O)Nc3nc4ccccc4s3)c2=O)c1 [Compound 2F11] | 1.005 multiples of 1× | 1.086 multiples of 1× | 0.640 multiples of 1× | 0.943 multiples of 1× | 1.012 multiples of 1× | 1.002 multiples of 1× |
| Cn1nccc1C(=O)NCc1ccc2c(c1)CCN2C(=O)c1ccc(F)cc1 [Compound 2G2] | 0.957 multiples of 1× | 0.887 multiples of 1× | 0.294 multiples of 1× | 0.958 multiples of 1× | 1.071 multiples of 1× | 0.963 multiples of 1× |
| CCCCN(c1ccccc1)c1ncnc2c1cnn2-c1ccc(Cl)cc1 [Compound 2G8] | 1.119 multiples of 1× | 1.362 multiples of 1× | 0.497 multiples of 1× | 1.179 multiples of 1× | 1.237 multiples of 1× | 1.469 multiples of 1× |
| CSc1ccc(C=Cc2nc3ccccc3n2S(=O)(=O)c2ccc(F)c(C)c2)cc1 [Compound 2G10] | 0.899 multiples of 1× | 0.786 multiples of 1× | 0.531 multiples of 1× | 0.790 multiples of 1× | 0.993 multiples of 1× | 0.855 multiples of 1× |
| CCOc1ccc(-c2nc(CSCC(=O)NCc3ccc(C)cc3)c(C)o2)cc1 [Compound 2H2] | 1.739 multiples of 1× | 0.706 multiples of 1× | 0.299 multiples of 1× | 1.251 multiples of 1× | 1.668 multiples of 1× | 1.952 multiples of 1× |
| CCOc1ccc(-c2nc(CSCC(=O)NCc3ccc(Cl)cc3)c(C)o2)cc1 [Compound 2H3] | 1.111 multiples of 1× | 0.915 multiples of 1× | 0.722 multiples of 1× | 0.897 multiples of 1× | 0.986 multiples of 1× | 1.003 multiples of 1× |
| Cc1ccc(-c2c(C)n3c4c(=O)n(C)c(=O)n(C)c4nc3n2CCO)cc1 [Compound 2H5] | 1.756 multiples of 1× | 0.185 multiples of 1× | 0.165 multiples of 1× | 1.316 multiples of 1× | 2.628 multiples of 1× | 2.422 multiples of 1× |
| N#CC(=CNc1ccc2c(c1)OCCO2)c1nc2ccccc2[nH]1 [Compound A09] | 0.941 multiples of 1× | 0.644 multiples of 1× | 0.513 multiples of 1× | 0.931 multiples of 1× | 0.879 multiples of 1× | 0.821 multiples of 1× |
| Cc1ccccc1NC(=O)C(C)Sc1nc2ccccc2c(=O)n1C (stereo not shown) [Compound D04] | 0.841 multiples of 1× | 0.866 multiples of 1× | 0.519 multiples of 1× | 0.865 multiples of 1× | 0.976 multiples of 1× | 1.071 multiples of 1× |
| Cn1nc(CC(=O)Nc2ccc(N3CCN(C(=O)OC(C)(C)C)CC3)cc2)c2ccccc2c1=O [Compound D06] | 1.233 multiples of 1× | 0.590 multiples of 1× | 0.153 multiples of 1× | 1.030 multiples of 1× | 1.510 multiples of 1× | 1.374 multiples of 1× |
| CCOc1ccc(S(=O)(=O)NCc2ccncc2)cc1C(C)C [Compound D09] | 0.390 multiples of 1× | 0.938 multiples of 1× | 0.360 multiples of 1× | 0.781 multiples of 1× | 0.437 multiples of 1× | 0.496 multiples of 1× |
| COc1cccc2cc(C(=O)Nc3ccc(N4CCNCC4)cc3)c(=O)oc12 [Compound D10] | 1.251 multiples of 1× | 1.347 multiples of 1× | 0.622 multiples of 1× | 1.072 multiples of 1× | 1.342 multiples of 1× | 1.593 multiples of 1× |

Target: T1, PU.1 (Mus musculus, UniProt P17433)
T1 construct: endogenous in cells; host or cells: BV2 PU.1-Luciferase (mouse microglial BV2 with a 5xLBB-luciferase reporter integrated at ROSA26)
Test: Luciferase assay (luminescence) in BV2 PU.1-Luciferase reporter cells
Format: cell-based
Details: luminescence reduction in BV2 PU.1-Luciferase cells, concentration-response, Hill's equation
From the text: PU.1 belongs to a group of transcription factors that all bind to the middle 5′-GGAA-3′ sequence. The flanking A/T rich sequence is crucial for conferring PU.1 selective binding. The flanking sequence requires unique structural properties of PU.1 and can therefore be targeted by drugs acting as allosteric inhibitors that prevent PU.1 from binding to the LBB. In order to achieve robust PU.1 binding, five tandem copies of the LBBs (5×LBB) were inserted into the luciferase promoter of the pGL4.23 plasmid. The region containing the five LBBs (5×LBB) was then subcloned into the pROSA26-1 plasmid (together with a PGKneo bpA plasmid for Neomycin/G418 resistance) that allows stable integration in chromosome 6 of the immortalized mouse microglial BV2 cell line (FIG. 2B). The stable cell line was created by selection with G418.
The BV2 PU.1-Luciferase cells (referred to as “cells” from here onward) were plated into a 384-well plate, using an automatic dispenser, 2000 cells per well in 30 μL of media composed of RPMI (Sigma-Aldrich), 10% FBS, 1% PenStrep (50 mg/mL) and 1% G418 (50 mg/mL) was plated. A robotic arm was used to transfer compounds in a 384-well format using a pin array into the plate containing the cells (here, 33 nL was transferred from a drug library containing 10 mM concentration of drugs for a final concentration of 10 μM per well). For reproducibility, each pin array with 384 compounds was added to 4 plates of cells. […] Subsequently, automatic of 30 μL of BrightGlo (Promega) was dispensed into 2 of the 4 plates, in order to lyse the cells and drive the luminescence reaction whereafter the luminescence intensity was measured by a plate reader (Perkin Elmer EnVision). The two other plates were fixed by automatically dispensing 30 μL of 10% formaldehyde with 2μL Hoechst per 1 mL formaldehyde which were left at room temperature for one hour, followed by plate reading (Acumen (TTPLabTech)). A compound transfer and treatment would be repeated if reproducibility between the luminescence plates and/or the fixed Hoechst plates was lacking. The drugs were selected and ranked according to the criteria described in FIG. 13. Luminescence values used were corrected for crosstalk. Hoechst values were total fluorescence area per well. Determination of a positive hit considered both the reduction of luminescence as well as a possible confounding reduction in cell viability. The formula used was y=(value−meanvalue)/stddev. […] Compounds were excluded if cell viability was reduced >2 standard deviations from the mean, using the same formula. The positive hits were then validated in multiple steps in order to identify true PU.1 inhibitors.
The degree of luminescence reduction of the hits was plotted with significant effective area under the curve in order to obtain an IC50.

| SMILES | pIC50 |
| --- | --- |
| CCCC(=O)Nc1nnc(SCc2cc(=O)c3ccc(C)cc3[nH]2)s1 [Compound 2E6] | 5.79 |
| Cc1ccc(C(=O)Nc2nnc(SCc3cc(=O)c4c(C)ccc(C)c4[nH]3)s2)cc1 [Compound 2E7] | 5.09 |
| Cc1ccc(C)c(N2CCN(C(=O)C3CCN(c4nc(-c5ccc(C(C)C)cc5)no4)CC3)CC2)c1 [Compound 2E10] | 5.87 |
| Cc1nc(-c2ccc(S(=O)(=O)Nc3ccc(C)c(N(C)C)c3)cc2)co1 [Compound 2F3] | 5.64 |
| COc1cc(NS(=O)(=O)c2ccc3c(c2)CCN3S(C)(=O)=O)cc(OC)c1 [Compound 2F5] | 5.45 |
| COc1ccc(NS(=O)(=O)c2ccc3c(c2)CCCN3C(=O)C2CCC2)cc1OC [Compound 2F7] | 5.85 |
| Cc1c(Cl)ccc2sc(N3CCN(C(=O)CCS(=O)(=O)c4ccc(F)cc4)CC3)nc12 [Compound 2F9] | 5.88 |
| Cc1cccc(Cn2cccc(C(=O)Nc3nc4ccccc4s3)c2=O)c1 [Compound 2F11] | 6.52 |
| Cn1nccc1C(=O)NCc1ccc2c(c1)CCN2C(=O)c1ccc(F)cc1 [Compound 2G2] | 5.32 |
| CCCCN(c1ccccc1)c1ncnc2c1cnn2-c1ccc(Cl)cc1 [Compound 2G8] | 6.01 |
| CSc1ccc(C=Cc2nc3ccccc3n2S(=O)(=O)c2ccc(F)c(C)c2)cc1 [Compound 2G10] | 6.29 |
| CCOc1ccc(-c2nc(CSCC(=O)NCc3ccc(C)cc3)c(C)o2)cc1 [Compound 2H2] | 6.42 |
| CCOc1ccc(-c2nc(CSCC(=O)NCc3ccc(Cl)cc3)c(C)o2)cc1 [Compound 2H3] | 6.13 |
| Cc1ccc(-c2c(C)n3c4c(=O)n(C)c(=O)n(C)c4nc3n2CCO)cc1 [Compound 2H5] | 6.81 |
| N#CC(=CNc1ccc2c(c1)OCCO2)c1nc2ccccc2[nH]1 [Compound A09] | 5.83 |
| Cc1ccccc1NC(=O)C(C)Sc1nc2ccccc2c(=O)n1C (stereo not shown) [Compound D04] | 6.32 |
| Cn1nc(CC(=O)Nc2ccc(N3CCN(C(=O)OC(C)(C)C)CC3)cc2)c2ccccc2c1=O [Compound D06] | 7.60 |
| CCOc1ccc(S(=O)(=O)NCc2ccncc2)cc1C(C)C [Compound D09] | 7.42 |
| COc1cccc2cc(C(=O)Nc3ccc(N4CCNCC4)cc3)c(=O)oc12 [Compound D10] | 6.59 |
